Data published in patent US9371274B2, “Compound having read-through activity” (The University of Tokyo, priority 2011, dated 2016).
“Also recorded” adds a separate entry of the source.

Experiments:
[1] = test system: reporter gene with premature stop codon (TGA) in COS-7 cells; experiment: In vitro read-through activity, COS-7 cells transfected with β-galactosidase/luciferase reporter gene; format: cell-based, African green monkey; conditions: for read-through activity / read-through efficiency (FIG. 1-3, in words): COS-7, TGA reporter, compared with negamycin; for Read-through Activity: same method as Example 16, luciferase activity divided by β-galactosidase activity, 48 hours incubation, concentration for these values not given
Procedure: African green monkey SV40-transformed kidney fibroblast cell line (COS-7) was sown in 100×20 mm cell culture dishes manufactured by Falcon and cultured at 37° C. in 5% CO2. Fifty milliliters of fetal bovine serum (FBS) was added to 500 mL of D-MEM (containing high glucose, L-glutamine, and phenol red) manufactured by Wako Pure Chemical Industries Ltd., and culture broth prepared to adjust to 10% FBS was used as the culture broth. (Referred to hereinafter as culture broth.)
The Reporter Lysis Buffer 5×, assay 2× buffer, 1 M Na2CO3, and standard used in creation of the calibration curve referred to hereinafter are included in the β-Galactosidase Enzyme Assay System with Reporter Lysis Buffer manufactured by Promega.
COS-7 cells (8.0×10^3 cells/well) were seeded by continuous dispensing of 100 μL each into flat-bottom 96-well plates (Costar (registered trade mark) 3596) manufactured by Corning and incubated for 15-16 hours at 37° C.
A quantity of 4 μL/well of DNA solution prepared in a ratio of 1.32 μL (2 μg) of reporter gene (a construct obtained by linking a β-galactosidase gene and a luciferase gene and inserting a premature stop codon (TGA) at their juncture), 100 μL of OPTI-MEM (registered trade mark) I (Reduced Serum Medium 1×) manufactured by Invitrogen, and 4 μL of FuGENE (registered trade mark) HD Transfection Reagent manufactured by Roche was added to the solution and incubated for 10-11 hours at 37° C.
The entire culture broth was aspirated, and the compound to be evaluated was prepared to adjust to 200 μM by culture broth and added by continuously dispensing 200 μL/well. 100 μM and 50 μM were also prepared in the same way and added by continuously dispensing 200 μL each. Incubation was carried out for 48 hours at 37° C. after addition.
After 48 hours had elapsed, the entire culture broth in the well was aspirated and washed twice with PBS. The Reporter Lysis Buffer 5× was then diluted by MilliQ, and a solution prepared to adjust to Reporter Lysis Buffer l× was added by continuously dispensing 100 μL each and allowed to stand for 15 minutes at room temperature. The contents of each well were recovered thereafter, and the entire amount was transferred to Nunc microwell plates (V bottom) manufactured by Thermo Fisher Scientific and centrifuged (1800 rpm, 15 minutes). Eighty-five microliters of this lysate was transferred to Nunc low-binding 96-well plates (flat bottom) clear manufactured by Thermo Fisher Scientific.
Using Nunc low-binding 96-well plates (flat bottom) clear manufactured by Thermo Fisher Scientific, 30 μL/well of Reporter Lysis Buffer l× was added by dispensing continuously, followed by addition of 20 μL of the recovered lysate to make 50 μL. Separately, the standard required for creation of a calibration curve was added to make 0, 1, 2, 3, 4, and 5 mU according to the protocol of the β-Galactosidase Enzyme Assay System with Reporter Lysis Buffer manufactured by Promega. A quantity of 50 μL of Assay 2× buffer was added to each of these wells and incubated for 25 minutes at room temperature. A quantity of 150 μL/well of 1M Na2CO3, a reaction-stopping solution, was added, and the […] (420 nm, reference […]) was measured immediately using an absorption/fluorescence microplate reader Tecan Safire manufactured by Tecan. A calibration curve was created from the absorbance of the standard, and the absorbance converted to mU according to this calibration curve was taken as the activity value.
A quantity of 50 μL/well of the recovered lysate was added to 96-well white plates (Costar (registered trade mark) 3912) manufactured by Corning and incubated for five minutes at room temperature after adding 100 μL of PicaGene (registered trade mark) manufactured by Toyo Ink Co., Ltd. After five minutes, the emission intensity was measured by a Berthold luminometer MicroLumat Plus LB96V manufactured by Berthold Japan. […]

[2] = test system: transgenic mice with luciferase gene and β-galactosidase gene as reporter genes; experiment: In vivo read-through activity in reporter transgenic mice (rectus femoris and gastrosoleus muscle); conditions: subcutaneous, every 24 hours for seven consecutive days; muscle excised on the eighth day
Procedure: Transgenic mice were produced by introducing a luciferase gene and […] gene as reporter genes by the method described in International Publication WO2008/004610 pamphlet.
A physiological saline solution of example compound 2 synthesized in Example 1 was administered subcutaneously to the abdomen of the transgenic mice produced every 24 hours for seven consecutive days. On the eighth day, the rectus femoris and the gastrosoleus muscle of the mice were excised. After mincing by ophthalmological scissors, three times the wet weight of Reporter Lysis Buffer (Promega, US) was added, and the tissue was disrupted by Physcotron (Niti-on Co., Ltd.). After freezing overnight and thawing, the supernatant obtained by centrifugation was introduced into a 96-well plate, and the β-galactosidase activity was measured by a Beta-Glo Assay System (Promega, US) and the luciferase activity was measured by a Bright-Glo Assay System (Promega, US). A luminometer (ATTO) was used in measurement. The luciferase activity value was divided by the […] activity value, and the value multiplied by 10^4 was taken as the read-through efficiency.

[3] = prior knowledge; cited from earlier work
[4] = test system: premature stop codon; experiment: Read-through activity stated in the description, test not specified; conditions: statement of the inventors' finding, no test named

Compound | Read-through Activity [1] | also measured
CN(CC(=O)O)NC(=O)C[C@@H](N)CCCN [Example Compound 2, (S)-2-(2-(3,6-diaminohexanoyl)-1-methylhydrazinyl)acetic acid] | – | read-through activity / read-through efficiency (FIG. 1-3, in words) [1]: remarkably high read-through efficiency in comparison even to negamycin; read-through activity in vivo (FIG. 4, in words) [2]: high read-through activity even in comparison to gentamicin and 5-epi-negamycin
CN(CC(=O)O)NC(=O)C[C@H](CCN)NC(=O)[C@@H](N)CCN [compound 45] | 1.65 ± 0.18 | –
CN(CC(=O)OCc1ccccc1Br)NC(=O)C[C@@H](N)CCN [compound 20] | 7.07 ± 0.45 | –
CC(C)C[C@H](N)C(=O)N[C@@H](CCCN)CC(=O)NN(C)CC(=O)O [Example Compound 7, 2-(2-((S)-6-amino-3-((S)-2-amino-4-methylpentanamide)hexanoyl)-1-methylhydrazinyl)acetic acid] | – | read-through activity / read-through efficiency (FIG. 1-3, in words) [1]: remarkably high read-through efficiency in comparison even to negamycin
CC(C)[C@H](N)C(=O)N[C@@H](CCN)CC(=O)NN(C)CC(=O)O [compound 35] | 3.09 ± 0.62 | –
CC[C@H](C)[C@H](N)C(=O)N[C@@H](CCN)CC(=O)NN(C)CC(=O)O [compound 38] | 1.75 ± 0.19 | –
CN(CC(=O)O)NC(=O)CC(N)CCCN (stereo not drawn) [3-Epi-5-dehydroxynegamycin] | – | antimicrobial activity (in words) [3]: weak antimicrobial activity
C[C@H](N)C(=O)N[C@@H](CCN)CC(=O)NN(C)CC(=O)O [compound 41] | 1.57 ± 0.05 | –
CN(CC(=O)O)NC(=O)C[C@@H](N)CCN [Example Compound 3, (S)-2-(2-(3,5-diaminopentanoyl)-1-methylhydrazinyl)acetic acid] | – | read-through activity / read-through efficiency (FIG. 1-3, in words) [1]: remarkably high read-through efficiency in comparison even to negamycin; also recorded: read-through efficiency equal to or greater than that of negamycin
CN(CC(=O)O)NC(=O)C[C@H](CCCN)NC(=O)[C@@H](N)Cc1ccccc1 [compound 14] | 2.13 ± 0.08 | –
CC(C)C[C@@H](N)C(=O)N[C@@H](CCCN)CC(=O)NN(C)CC(=O)O [compound 23] | 5.65 ± 0.09 | –
C[C@H](N)C(=O)N[C@@H](CCN)CC(=O)NN(C)CC(=O)O [compound 36] | 1.92 ± 0.40 | –
CCOC(=O)CN(C)NC(=O)C[C@@H](N)CCCN [Example Compound 5, (S)-ethyl 2-(2-(3,6-diaminohexanoyl)-1-methylhydrazinyl)acetate] | – | read-through activity / read-through efficiency (FIG. 1-3, in words) [1]: remarkably high read-through efficiency in comparison even to negamycin
CN(CC(=O)O)NC(=O)C[C@@H](N)CCNC(=O)CN [compound 29] | 2.84 ± 0.06 | –
CN(CC(=O)O)NC(=O)C[C@H](CCN)NC(=O)[C@@H](N)CC(=O)O [compound 44] | 1.58 ± 0.05 | –
CN(CC(=O)O)NC(=O)C[C@@H](N)CCNS(C)(=O)=O [compound 32] | 1.24 ± 0.09 | –
CN(CC(=O)O)NC(=O)C[C@H](CCN)NC(=O)[C@@H](N)Cc1ccc(O)cc1 [compound 39] | 1.63 ± 0.14 | –
CN(CC(=O)OCc1ccccc1Br)NC(=O)C[C@@H](N)CCN [compound 25] | 1.26 ± 0.07 | –
CN(CC(=O)O)NC(=O)CC(N)CC(O)CN (stereo not drawn) [5-epi-negamycin] | – | read-through activity (in words) [4]: has read-through activity

Compound | Read-through Activity [1] | also measured
CC(C)C[C@H](N)C(=O)N[C@@H](CC(=O)CN)CC(=O)NN(C)CC(=O)O [3-N-leucyl-3-epi-5-dehydronegamycin] | – | read-through activity (in words) [4]: potent read-through activity; antimicrobial activity (in words) [3]: no antimicrobial activity
CCOC(=O)N(CC(=O)O)NC(=O)C[C@@H](N)CCCN [compound 15] | 1.92 ± 0.21 | –
CN(CC(=O)O)NC(=O)C[C@H](CCN)NC(=O)[C@@H](N)CCN [compound 40] | 1.50 ± 0.05 | –
CN(CC(=O)O)NC(=O)C[C@H](CCN)NC(=O)CN [compound 37] | 2.78 ± 0.67 | –
CN(CC(=O)OCc1ccc(Br)cc1)NC(=O)C[C@@H](N)CCN [compound 22] | 5.18 ± 0.04 | –
CC[C@H](C)[C@H](N)C(=O)N[C@@H](CCN)CC(=O)NN(C)CC(=O)O [compound 43] | 2.20 ± 0.05 | –
CC(C)[C@H](N)C(=O)N[C@@H](CCCN)CC(=O)NN(C)CC(=O)O [compound 16] | 1.87 ± 0.29 | –
CN(CC(=O)O)NC(=O)C[C@H](CCN)NC(=O)[C@@H](N)CCCN [compound 46] | 1.60 ± 0.13 | –
CN(CC(=O)O)NC(=O)C[C@H](CCN)NC(=O)[C@@H](N)CCCCN [compound 42] | 2.14 ± 0.18 | –
CN(CC(=O)O)NC(=O)C[C@@H](N)CCNC(=O)CN [compound 34] | 2.00 ± 0.13 | –
CCCCCNCC[C@H](N)CC(=O)NN(C)CC(=O)O [compound 27] | 1.64 ± 0.12 | –
CN(CC(=O)O)NC(=O)C[C@H](CCCN)NC(=O)CN [compound 17] | 2.10 ± 0.90 | –
CN(CC(=O)O)NC(=O)C[C@H](N)C[C@@H](O)CN [negamycin, methylhydrazinoacetic acid-linked δ-hydroxy-β-lysine, reference compound] | 1.53±0.04 | antimicrobial activity (in words) [3]: high antimicrobial activity
CC(C)C[C@@H](N)C(=O)N[C@@H](CCCN)CC(=O)NN(C)CC(=O)O [compound 18] | 1.30 ± 0.09 | –
CN(CC(=O)O)NC(=O)C[C@H](CCCN)NC(=O)[C@@H](N)Cc1ccccc1 [compound 19] | 3.25 ± 0.07 | –
CN(CC(=O)O)NC(=O)C[C@@H](N)CCNCc1ccccc1 [compound 28] | 1.40 ± 0.04 | –
CN(CC(=O)OCc1ccccc1)NC(=O)C[C@@H](N)CCN [compound 24] | 3.89 ± 0.16 | –
CCCNCC[C@H](N)CC(=O)NN(C)CC(=O)O [compound 26] | 1.44 ± 0.04 | –
CN(CC(=O)O)NC(=O)C[C@@H](N)CCNCc1ccccc1 [compound 33] | 2.34 ± 0.11 | –
